Measured values: ChEMBL document CHEMBL1142594, “Antioxidative constituents of Etlingera elatior” (J Nat Prod, 2005)

Test: Antioxidant activity assessed as inhibition of lipid peroxidation at 300 uM by ferric thiocyanate method
Type: functional

| SMILES | inhibition [%] |
| --- | --- |
| Cc1c(C)c2c(c(C)c1O)CC[C@@](C)(CCC[C@H](C)CCC[C@H](C)CCCC(C)C)O2 | 69.5 |
| COc1cc(/C=C/C(O)=C/C(=O)/C=C/c2ccc(O)cc2)ccc1O | 92.5 |
| O=C(/C=C/C=C/C=C/c1ccc(O)cc1)c1ccc(O)cc1 | 93.7 |
| O=C(/C=C/C=C/c1ccc(O)cc1)/C=C/c1ccc(O)cc1 | 92.1 |
